Experimental data reported in US20180071317A1, “USE OF AGENTS THAT ALTER THE PERITUMORAL ENVIRONMENT FOR THE TREATMENT OF CANCER” (SERVICIO ANDALUZ DE SALUD, priority 2011, published 2018).

How the values were obtained:
[1] = system: fibroblasts (PHF) co-cultured with tumor cells, ovarian carcinoma (EFO-27); assay: Marker expression (IHC) in PHF co-cultured with EFO-27 tumor cells; assay type: cell-based, human; details: co-culture with EFO-27; SP 1 μM + antagonist 1 μM; 48 h;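 note: values are the percentage of PHF fibroblasts positive for each marker, cultured in fresh plasma from a healthy human donor, each experiment run in six replicates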
Procedure: (§1) All cultures were maintained 48 hours, following which the same cells were included in paraffin blocks for subsequent analysis of the expression of different markers by immunohistochemistry (see Example 1). […] All experiments were carried out sixfold. Analyzed markers in fibroblast cells (stromal cells) were: TGF-α, TGF-β1, TGF-β2, TGF-β3, SPARC, MMP-3, MMP-7, MMP-9, MMP-11, MMP-13 and MMP-14.

[2] = system: fibroblasts (PHF) co-cultured with human neuroblastoma tumor cells (KELLY); assay: Marker expression (IHC) in PHF co-cultured with KELLY tumor cells; assay type: cell-based; details: PHF co-cultured with KELLY + SP + NK1 antagonist;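 note: Co-cultures grown on healthy-donor human blood plasma, run in six replicates, value is percentage of fibroblasts positive for each marker, compared with fibroblasts cultured alone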
Procedure: as §1

[3] = system: fibroblasts (PHF) co-cultivated with tumor cell lymphoblastic leukemia B (SDI); assay: Marker expression (IHC) in PHF co-cultured with SDI tumor cells; assay type: cell-based, human; details: PHF co-cultivated with SDI + SP + NK1 antagonist
Procedure: as §1

[4] = system: fibroblasts (PHF) co-cultured with human glioma tumor cells (GAMG); assay: Marker expression (IHC) in PHF co-cultured with GAMG tumor cells; assay type: cell-based; details: co-culture with GAMG; SP 1 μM + antagonist 1 μM; 48 h;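 note: percentage of PHF fibroblasts positive for each marker, cultured in fresh plasma from a healthy donor, six replicates, with fibroblasts cultured alone as reference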
Procedure: as §1

[5] = system: fibroblasts (PHF) co-cultured with human choriocarcinoma tumor cells (AC-1M32); assay: Marker expression (IHC) in PHF co-cultured with AC-1M32 tumor cells; assay type: cell-based; details: co-culture with AC-1M32; SP 1 μM + antagonist 1 μM; 48 h;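 note: Read-out is the percentage of PHF fibroblasts positive for each marker, with cells grown in fresh healthy-donor blood plasma, six replicates, reference being fibroblasts cultured alone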
Procedure: as §1

[6] = system: fibroblasts (PHF) co-cultured with tumor cells of human cervix carcinoma (KB); assay: Marker expression (IHC) in PHF co-cultured with KB tumor cells; assay type: cell-based; details: co-culture with KB; SP 1 μM + antagonist 1 μM; 48 h;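 note: percentage of PHF fibroblasts showing expression of each marker, cultured in fresh blood plasma from a healthy human donor, six replicates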
Procedure: as §1

[7] = system: fibroblasts (PHF) co-cultured with tumor cells in human prostate carcinoma (22Rv1); assay: Marker expression (IHC) in PHF co-cultured with 22Rv1 tumor cells; assay type: cell-based; details: co-culture with 22Rv1; SP 1 μM + antagonist 1 μM; 48 h;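 note: cultures grown on fresh plasma from a healthy donor, each experiment run sixfold, values give the percentage of fibroblasts positive for the given marker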
Procedure: as §1

[8] = system: macrophages in co-culture with cells isolated from primary human tumors; assay: Marker expression (IHC) in macrophages co-cultured with primary human tumor cells (colon, breast, ovarian, lung carcinoma, melanoma); assay type: cell-based; details: SP 1 μM + antagonist 1 μM;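 note: macrophages came from pleural or peritoneal washings of the patient who also supplied the tumor cells, and both were co-cultured on fresh blood plasma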
Procedure: To check that the interaction of tumor cells obtained directly from primary human immune cell/inflammatory (macrophages) cells, obtained from the patient stimulate secretion of substances by these macrophages recognized as important in survival of both cell types and in the progression of tumor cells, co-cultures were performed on fresh blood plasma, immune cell/inflammatory (macrophages) with tumor cells derived from primary tumors. All obtained from the same patient, to build an experimental model similar to human physiology.
Macrophages were obtained from washing or pleural or peritoneal from the same patient from which the primary tumor cells were obtained in each case.

[9] = system: fibroblasts (PHF) co-cultured with human melanoma tumor cells (MEL-HO1); assay: Marker expression (IHC) in PHF co-cultured with MEL-HO1 tumor cells; assay type: cell-based; details: PHF co-cultured with MEL-HO1 + SP + NK1 antagonist;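 note: values are the percentage of fibroblasts positive for each marker, with cultures grown in fresh healthy-donor blood plasma and each experiment run six times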
Procedure: as §1

[10] = system: human primary macrophages (PHM); assay: Marker expression (immunohistochemistry) in human primary macrophages with SP alone or with NK1 antagonists; assay type: cell-based; details: SP 1 μM + antagonist 1 μM; 48 h
[11] = co-culture with cells isolated from breast carcinoma
[12] = co-culture with cells isolated from colon carcinoma
[13] = co-culture with cells isolated from lung carcinoma
[14] = co-culture with cells isolated from melanoma
[15] = co-culture with cells isolated from ovarian carcinoma

C[C@@H](O[C@H]1OCCN(Cc2n[nH]c(=O)[nH]2)[C@H]1c1ccc(F)cc1)c1cc(C(F)(F)F)cc(C(F)(F)F)c1 [Aprepitant]
0%: PHF cells expressing MMP-3 [1] | PHF cells expressing MMP-7 [1] | PHF cells expressing MMP-9 [1] | PHF cells expressing MMP-11 [1] | PHF cells expressing MMP-13 [1] | PHF cells expressing MMP-14 [1] | PHF cells expressing SPARC [1] | PHF cells expressing TGF-α [1] | PHF cells expressing TGF-β1 [1] | PHF cells expressing TGF-β2 [1] | PHF cells expressing TGF-β3 [1] | cells expressing MMP-3 [2] | cells expressing MMP-7 [2] | cells expressing MMP-9 [2] | cells expressing MMP-11 [2] | cells expressing MMP-13 [2] | cells expressing MMP-14 [2] | cells expressing SPARC [2] | cells expressing TGF-α [2] | cells expressing TGF-β1 [2] | cells expressing TGF-β2 [2] | cells expressing TGF-β3 [2] | cells expressing MMP-3 [3] | cells expressing MMP-7 [3] | cells expressing MMP-9 [3] | cells expressing MMP-11 [3] | cells expressing MMP-13 [3] | cells expressing MMP-14 [3] | cells expressing SPARC [3] | cells expressing TGF-α [3] | cells expressing TGF-β1 [3] | cells expressing TGF-β2 [3] | cells expressing TGF-β3 [3] | PHF cells expressing MMP-3 [4] | PHF cells expressing MMP-7 [4] | PHF cells expressing MMP-9 [4] | PHF cells expressing MMP-11 [4] | PHF cells expressing MMP-13 [4] | PHF cells expressing MMP-14 [4] | PHF cells expressing SPARC [4] | PHF cells expressing TGF-α [4] | PHF cells expressing TGF-β1 [4] | PHF cells expressing TGF-β2 [4] | PHF cells expressing TGF-β3 [4] | PHF cells expressing MMP-3 [5] | PHF cells expressing MMP-7 [5] | PHF cells expressing MMP-9 [5] | PHF cells expressing MMP-11 [5] | PHF cells expressing MMP-13 [5] | PHF cells expressing MMP-14 [5] | PHF cells expressing SPARC [5] | PHF cells expressing TGF-α [5] | PHF cells expressing TGF-β1 [5] | PHF cells expressing TGF-β2 [5] | PHF cells expressing TGF-β3 [5] | PHF cells expressing MMP-3 [6] | PHF cells expressing MMP-7 [6] | PHF cells expressing MMP-9 [6] | PHF cells expressing MMP-11 [6] | PHF cells expressing MMP-13 [6] | PHF cells expressing MMP-14 [6] | PHF cells expressing SPARC [6] | PHF cells expressing TGF-α [6] | PHF cells expressing TGF-β1 [6] | PHF cells expressing TGF-β2 [6] | PHF cells expressing TGF-β3 [6] | PHF cells expressing MMP-3 [7] | PHF cells expressing MMP-7 [7] | PHF cells expressing MMP-9 [7] | PHF cells expressing MMP-11 [7] | PHF cells expressing MMP-13 [7] | PHF cells expressing MMP-14 [7] | PHF cells expressing SPARC [7] | PHF cells expressing TGF-α [7] | PHF cells expressing TGF-β1 [7] | PHF cells expressing TGF-β2 [7] | PHF cells expressing TGF-β3 [7] | Percentage of macrophages which expressed EGF [8, 11] | Percentage of macrophages which expressed MMP-9 [8, 11] | Percentage of macrophages which expressed VEGF [8, 11] | Percentage of macrophages which expressed EGF [8, 12] | Percentage of macrophages which expressed MMP-9 [8, 12] | Percentage of macrophages which expressed VEGF [8, 12] | Percentage of macrophages which expressed EGF [8, 13] | Percentage of macrophages which expressed MMP-9 [8, 13] | Percentage of macrophages which expressed VEGF [8, 13] | Percentage of macrophages which expressed EGF [8, 14] | Percentage of macrophages which expressed MMP-9 [8, 14] | Percentage of macrophages which expressed VEGF [8, 14] | Percentage of macrophages which expressed EGF [8, 15] | Percentage of macrophages which expressed MMP-9 [8, 15] | Percentage of macrophages which expressed VEGF [8, 15] | cells expressing MMP-3 [9] | cells expressing MMP-7 [9] | cells expressing MMP-9 [9] | cells expressing MMP-11 [9] | cells expressing MMP-13 [9] | cells expressing MMP-14 [9] | cells expressing SPARC [9] | cells expressing TGF-α [9] | cells expressing TGF-β1 [9] | cells expressing TGF-β2 [9] | cells expressing TGF-β3 [9] | macrophages expressing EGF [10] | macrophages expressing MMP-9 [10] | macrophages expressing VEGF [10]
